Data set [1] deals with HCT-116. Nature of the data set: Antitumor activity against MTAP-knockout human HCT-116 cells xenografted in Nu/Nu mouse model assessed as inhibition of tumor growth at 50 mg/kg, po qd measured after 21 days relative to control. It is filed as functional. The conditions noted are these: HCT-116, 504 h, time 21 day, read-out: TGI. In general terms: Xenograft models place foreign cells or tissue in a host animal.

Data set [2] concerns the target S-adenosylmethionine synthase isoform type-2 (Homo sapiens, UniProt P31153). The experiment in a line: Inhibition of MAT2A (unknown origin) using L-methionine as substrate preincubated for 30 mins followed by substrate addition measured after 60 mins by colorimetric assay.
A short description of data set [3]: Plasma protein binding in rat assessed as unbound fraction at 1 uM incubated for 6 hrs by LC-MS/MS based rapid equlibrium dialysis method. It is filed as ADME, cell-free.
Data set [4] is described as follows: Tmax in male Sprague-Dawley rat plasma at 10 mg/kg, po incubated for 24 hrs by LC-MS/MS analysis. The data set is classed as ADME, organism-based.
In another data set the target is Cytochrome P450 3A4 (Homo sapiens, UniProt P08684). The experiment in a line: Inhibition of human liver microsomes CYP3A4 using Midazolam as substrate incubated for 5 mins with compound followed by substrate and NADPH addition measured after 5 mins by LC-MS/MS analysis. It is filed as ADME, Microsome. (In general: Liver microsomes are a subcellular fraction often used to study metabolism.)
Cytochrome P450 3A4, sequence (P08684 whole entry): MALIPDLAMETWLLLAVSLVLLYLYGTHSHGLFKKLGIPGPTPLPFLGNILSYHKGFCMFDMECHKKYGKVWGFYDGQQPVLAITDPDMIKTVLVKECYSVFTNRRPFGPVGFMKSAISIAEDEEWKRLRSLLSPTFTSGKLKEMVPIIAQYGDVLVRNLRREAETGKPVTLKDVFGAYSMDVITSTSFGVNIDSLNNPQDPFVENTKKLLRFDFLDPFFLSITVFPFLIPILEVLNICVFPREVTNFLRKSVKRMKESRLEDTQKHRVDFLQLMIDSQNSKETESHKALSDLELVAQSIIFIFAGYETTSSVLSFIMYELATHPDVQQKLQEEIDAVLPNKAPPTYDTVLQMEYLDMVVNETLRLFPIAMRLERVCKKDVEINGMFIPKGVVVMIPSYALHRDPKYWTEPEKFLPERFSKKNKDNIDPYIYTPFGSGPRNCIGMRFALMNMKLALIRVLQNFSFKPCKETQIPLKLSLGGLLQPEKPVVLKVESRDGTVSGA

Data set [5] is described as follows: Cmax in ICR mouse plasma at 10 mg/kg, IG measured after 24 hrs by LC-MS/MS analysis. It is filed as ADME, organism-based. On the set-up: dose 10 mg/kg, time 24 hrs, route ig. Conditions: po.
Data set [6] is described as follows: Cmax in male Beagle dog at 3 mg/kg, po incubated for 24 hrs by LC-MS/MS analysis. It is filed as ADME, organism-based, Canis lupus familiaris. On the set-up: dose 3 mg/kg, time 24 hrs, route po. Conditions: in vivo.
The nature of data set [7]: Plasma protein binding in human assessed as unbound fraction at 1 uM incubated for 6 hrs by LC-MS/MS based rapid equlibrium dialysis method relative to control. It is filed as ADME, cell-free.
Data set [8] in a line: AUClast in ICR mouse plasma at 10 mg/kg, IG incubated for 24 hrs by LC-MS/MS analysis. Conditions: po. The data set is classed as ADME, organism-based. More on the design: dose 10 mg/kg, time 24 hrs, route ig.
A short description of data set [9]: AUC(0 to last) in male Sprague-Dawley rat at 10 mg/kg, po incubated for 24 hrs by LC-MS/MS analysis. It is filed as ADME, organism-based. More on the design: dose 10 mg/kg, time 24 hrs, route po. The conditions noted are these: in vivo.
A short description of data set [10]: Plasma protein binding in dog assessed as unbound fraction at 1 uM incubated for 6 hrs by LC-MS/MS based rapid equlibrium dialysis method. The data set is classed as ADME, cell-free, Canis lupus familiaris.
The next data set deals with Cytochrome P450 2C9 (Homo sapiens, UniProt P11712). Nature of the data set: Inhibition of human liver microsomes CYP2C9 using Diclofenac as substrate incubated for 5 mins with compound followed by substrate and NADPH addition measured after 10 mins by LC-MS/MS analysis. The data set is classed as ADME, Microsome.
Cytochrome P450 2C9, sequence (P11712 whole entry): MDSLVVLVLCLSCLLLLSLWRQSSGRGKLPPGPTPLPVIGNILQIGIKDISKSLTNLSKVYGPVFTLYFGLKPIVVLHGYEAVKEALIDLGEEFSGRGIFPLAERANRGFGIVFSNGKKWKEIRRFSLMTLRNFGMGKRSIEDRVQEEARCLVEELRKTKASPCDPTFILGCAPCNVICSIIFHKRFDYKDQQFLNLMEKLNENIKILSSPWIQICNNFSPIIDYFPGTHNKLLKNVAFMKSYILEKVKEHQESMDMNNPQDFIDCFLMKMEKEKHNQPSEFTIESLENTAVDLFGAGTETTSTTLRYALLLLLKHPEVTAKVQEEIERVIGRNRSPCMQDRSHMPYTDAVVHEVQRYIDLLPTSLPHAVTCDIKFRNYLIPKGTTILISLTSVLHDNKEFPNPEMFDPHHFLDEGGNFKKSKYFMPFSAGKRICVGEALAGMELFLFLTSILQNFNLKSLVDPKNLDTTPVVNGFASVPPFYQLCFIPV
Data set [11] is described as follows: Half life in male Beagle dog at 3 mg/kg, po incubated for 24 hrs by LC-MS/MS analysis. The conditions noted are these: in vivo. It is filed as ADME, organism-based, Canis lupus familiaris.
Data set [12] can be described thus: Toxicity in Nu/Nu mouse xenografted with MTAP-knockout human HCT-116 cells assessed as maximum body weight loss at 10 to 20 mg/kg, po qd measured after 21 days. It is filed as organism-based. The conditions noted are these: in vivo, 504 h, dose 10-20 mg/kg, time 21 day.
Data set [13] relates to HCT-116. Nature of the data set: Antitumor activity against MTAP-knockout human HCT-116 cells xenografted in Nu/Nu mouse model assessed as reduction in SAM concentration at 20 mg/kg, po qd administered for 21 days measured after 10 hrs post last dose relative to control. The conditions noted are these: time 514 hrs. The data set is classed as functional. More on the design: scale not given: the % may be the effect or the level left.

Another data set has as its target Cytochrome P450 2C19 (Homo sapiens, UniProt P33261). The experiment in a line: Inhibition of human liver microsomes CYP2C19 incubated for 5 mins with compound followed by substrate and NADPH addition measured after 10 mins by LC-MS/MS analysis. The data set is classed as ADME, Microsome.
The nature of data set [14]: Metabolic stability in human liver microsomes assessed as intrinsic clearance. The data set is classed as ADME, Microsome. The conditions noted are these: read-out: CLH.
Data set [15] can be described thus: AUClast in male Beagle dog at 3 mg/kg, po incubated for 24 hrs by LC-MS/MS analysis. It is filed as ADME, organism-based, Canis lupus familiaris. More on the design: dose 3 mg/kg, time 24 hrs, route po. The conditions noted are these: in vivo.
Data set [16] can be described thus: Half life in ICR mouse plasma at 10 mg/kg, IG measured after 24 hrs by LC-MS/MS analysis. It is filed as ADME, organism-based. The conditions noted are these: po.
For data set [17], the system named is HCT-116. Nature of the data set: Antiproliferative activity against MTAP knockout human HCT-116 assessed as inhibition of cell proliferation incubated for 6 days by alamar blue reagent based analysis. It is filed as functional. Conditions: HCT-116, 144 h. On the technique in general: Alamar Blue is a resazurin reagent that responds to reducing activity.
The subject of data set [18] is HCT-116. The experiment in a line: Antitumor activity against MTAP-knockout human HCT-116 cells xenografted in Nu/Nu mouse model assessed as tumor growth inhibition at 10 mg/kg, po qd measured after 21 days relative to control. The data set is classed as functional. Conditions: HCT-116, 504 h, time 21 day, read-out: TGI.
Another data set deals with Cytochrome P450 2D6 (Homo sapiens, UniProt P10635). Nature of the data set: Inhibition of human liver microsomes CYP2D6 using Dextromethorphan as substrate incubated for 5 mins with compound followed by substrate and NADPH addition measured after 10 mins by LC-MS/MS analysis. It is filed as ADME, Microsome.
Cytochrome P450 2D6, sequence (P10635 whole entry): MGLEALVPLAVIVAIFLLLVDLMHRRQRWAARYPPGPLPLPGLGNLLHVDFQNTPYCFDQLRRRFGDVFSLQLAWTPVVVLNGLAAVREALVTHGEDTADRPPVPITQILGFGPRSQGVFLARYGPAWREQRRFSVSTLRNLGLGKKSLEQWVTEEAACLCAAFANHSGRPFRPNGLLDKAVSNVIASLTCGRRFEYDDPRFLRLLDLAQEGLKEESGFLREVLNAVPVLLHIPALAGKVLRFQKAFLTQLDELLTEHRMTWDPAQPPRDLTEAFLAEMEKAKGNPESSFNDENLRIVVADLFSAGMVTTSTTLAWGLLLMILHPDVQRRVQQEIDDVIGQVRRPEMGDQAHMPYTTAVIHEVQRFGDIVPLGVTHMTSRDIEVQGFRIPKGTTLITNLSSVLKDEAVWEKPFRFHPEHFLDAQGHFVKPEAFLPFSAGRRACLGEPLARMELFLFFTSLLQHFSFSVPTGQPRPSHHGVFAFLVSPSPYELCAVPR
Data set [19] is described as follows: Tmax in male Beagle dog at 3 mg/kg, po incubated for 24 hrs by LC-MS/MS analysis. The conditions noted are these: in vivo. The data set is classed as ADME, organism-based, Canis lupus familiaris.
The nature of data set [20]: Tmax in ICR mouse plasma at 10 mg/kg, IG measured after 24 hrs by LC-MS/MS analysis. It is filed as ADME, organism-based. The conditions noted are these: po.
Data set [21] has as its system HCT-116. The experiment in a line: Antitumor activity against MTAP-knockout human HCT-116 cells xenografted in Nu/Nu mouse model assessed as tumor growth inhibition at 20 mg/kg, po qd measured after 21 days relative to control. The data set is classed as functional. Conditions: HCT-116, 504 h, time 21 day, read-out: TGI.
A short description of data set [22]: Cmax in male Sprague-Dawley rat plasma at 10 mg/kg, po incubated for 24 hrs by LC-MS/MS analysis. The data set is classed as ADME, organism-based. On the set-up: time 24 hrs, dose 10 mg/kg, route po.
Data set [23] is described as follows: Half life in male Sprague-Dawley rat plasma at 10 mg/kg, po incubated for 24 hrs by LC-MS/MS analysis. It is filed as ADME, organism-based.
The nature of data set [24]: Plasma protein binding in mouse assessed as unbound fraction at 1 uM incubated for 6 hrs by LC-MS/MS based rapid equlibrium dialysis method. The data set is classed as ADME, cell-free.

A word on the IC50: it is the concentration at which inhibition is half-maximal. The term fraction unbound denotes the share of the substance not bound to proteins or other matrix. What is called Tmax is the time from dosing to the highest level. A word on the Cmax: it is the peak of the concentration-time curve. The term AUC(0-t) denotes the area under the concentration-time curve up to a stated or last time point. As usually defined, the half-life is the time in which the quantity being followed falls by half.

The structures appear in SMILES notation.

S-adenosylmethionine synthase isoform type-2, sequence (P31153 whole entry, canonical isoform): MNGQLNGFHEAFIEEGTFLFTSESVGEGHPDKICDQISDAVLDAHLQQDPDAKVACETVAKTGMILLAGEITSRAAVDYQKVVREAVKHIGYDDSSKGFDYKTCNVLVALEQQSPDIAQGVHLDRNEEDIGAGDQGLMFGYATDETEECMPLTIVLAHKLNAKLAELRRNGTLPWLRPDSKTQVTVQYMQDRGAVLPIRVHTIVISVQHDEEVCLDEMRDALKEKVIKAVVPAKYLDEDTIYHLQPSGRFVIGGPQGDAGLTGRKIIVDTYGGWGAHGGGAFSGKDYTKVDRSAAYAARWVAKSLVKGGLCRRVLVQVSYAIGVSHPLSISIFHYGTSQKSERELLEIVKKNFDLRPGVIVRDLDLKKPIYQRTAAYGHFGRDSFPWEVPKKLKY
Cytochrome P450 2C19, sequence (P33261 whole entry): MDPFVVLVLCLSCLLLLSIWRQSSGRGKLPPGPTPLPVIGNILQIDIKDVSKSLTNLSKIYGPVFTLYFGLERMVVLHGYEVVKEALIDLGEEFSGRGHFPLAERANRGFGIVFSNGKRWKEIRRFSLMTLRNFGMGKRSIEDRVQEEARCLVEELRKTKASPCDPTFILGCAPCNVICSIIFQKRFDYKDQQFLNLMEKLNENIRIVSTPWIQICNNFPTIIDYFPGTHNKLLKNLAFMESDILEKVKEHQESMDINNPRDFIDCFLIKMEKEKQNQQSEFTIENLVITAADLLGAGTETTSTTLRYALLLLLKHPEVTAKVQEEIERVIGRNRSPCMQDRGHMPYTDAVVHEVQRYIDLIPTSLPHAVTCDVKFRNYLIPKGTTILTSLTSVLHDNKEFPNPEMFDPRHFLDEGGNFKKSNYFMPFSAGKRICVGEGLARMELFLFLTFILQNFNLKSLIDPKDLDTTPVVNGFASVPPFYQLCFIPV

For `COc1ccc(-c2c(Nc3ccccn3)[nH]c3c(C4=CCCCC4)c(-c4ccccc4)nn3c2=O)cc1`, in the data set on HCT-116 [1], the inhibition in vivo at 50 mg/kg turned out to be 43%.
In turn, `CNc1nc(=O)c(-c2ccccc2Cl)c2cc(C(F)F)ccn12` showed an IC50 in [2] of 49 nM.
As for `O=c1nc(NC2CC2)n2ccc(C(F)(F)F)cc2c1-c1ccccc1F`, half-maximal inhibition in [2] (IC50) was put at 120 nM.
The compound `CNc1nc(=O)c(-c2cccc(Cl)c2)c2cc(C(F)(F)F)ccn12` registered an IC50 in [2] of 107 nM.
On to `CNc1nc(=O)c(-c2cccc(C)c2)c2cc(C(F)(F)F)ccn12`, for which, in data set [2], the midpoint of inhibition, the IC50, lay at 60 nM.
The compound `CNc1nc(=O)c(-c2ccccc2Cl)c2cc(C)ccn12` gave a half-maximal inhibitory concentration (IC50) in data set [2] of 143 nM.
Turning to `O=C(C1CC1)N1CC(=O)N(c2ccccc2Cl)c2cc(C(F)(F)F)ccc21`, in [2], inhibition was half-maximal at 2550 nM (IC50).
The same measure, in the same setting: then `CC(C)Nc1nc(=O)c(-c2ccccc2F)c2cc(C(F)(F)F)ccn12`, with 80 nM.
Regarding `O=c1nc(NC2CC2)n2ccc(C(F)(F)F)cc2c1-c1cccnc1F`, the fraction unbound at 6 h, 1 µM turned out to be 0.329 in data set [3], 0.216 in [7], 0.325 in data set [10] and 0.091 in data set [24]. Further, the values for the Tmax in [4], in data set [19] and in data set [20] were 3.3 h, 1.3 h and 40.2 min, respectively. Moreover, the IC50 at Cytochrome P450 3A4 was > 10 µM; in data set [2] it was 40 nM; at Cytochrome P450 2C9, > 10 µM; at Cytochrome P450 2C19, > 10 µM; with HCT-116 [17], 273 nM; at Cytochrome P450 2D6, > 10 µM. In addition, the highest concentration (Cmax) in [5] turned out to be 16200 ng/mL; in [6], 1680 ng/mL; in data set [22], 2820 ng/mL. Moreover, the AUC(0-t) at 24 h in data set [8] was determined as 34000 ng·h/mL; in [9], 16200 ng·h/mL; in [15], 9310 ng·h/mL. In addition, the figures for the half-life in [11], in data set [16] and in data set [23] were 156 min, 198 min and 180 min, respectively. In addition, the Activity came out at 11% in [12] and 79% in the data set with HCT-116 [13]. For the same compound, the CLint scaled in [14] came to 1.4 mL/min/kg. For the same compound, the inhibition in vivo at 10 mg/kg in the data set with HCT-116 [18] was found to be 48%. Further, in the data set on HCT-116 [21], the inhibition in vivo at 20 mg/kg was found to be 60%.
In [2], `CNc1nc(=O)c(-c2ccccc2F)c2cc(C(F)(F)F)ccn12` showed an IC50 of 45 nM.
The same measure, in the same setting: as for `CNc1nc(=O)c(-c2ccccc2Cl)c2cc(C(F)(F)F)cnn12`, the figure is > 10000 nM.
The compound `CNc1nc(=O)c(-c2cccc(F)c2)c2cc(C(F)(F)F)ccn12` came in with an IC50 in data set [2] of 42 nM.
`CNc1nc(=O)c(-c2ccccc2)c2cc(C(F)(F)F)ccn12` gave an IC50 in data set [2] of 65 nM.
In [2], `CNc1nc(=O)c(-c2ccc(C)cc2)c2cc(C(F)(F)F)ccn12` displayed an IC50 of 347 nM.
Still for that read-out and setting: then `CNc1nc(=O)c(-c2ccccc2Cl)c2cc(C(F)(F)F)ccn12`, with 49 nM; and `CNc1nc(=O)c(-c2c(F)cccc2F)c2cc(C(F)(F)F)ccn12`, with 65 nM; and `CNc1nc(=O)n(-c2ccccc2Cl)c2cc(C(F)(F)F)sc12`, with 268 nM.
`CNc1nc(=O)c(-c2ccccc2Cl)c2cc(C3CC3)ccn12` yielded an IC50 in [2] of 53 nM.
On to `CNc1nc(=O)c(-c2cccc(C#N)c2)c2cc(C(F)(F)F)ccn12`, for which, in data set [2], the IC50 amounted to 199 nM.
For `O=c1nc(NC2CC2)n2ccc(C(F)(F)F)cc2c1-c1cccc(F)c1`, in data set [2], the IC50 was determined as 46 nM.
For `O=c1nc(NC2CCC2)n2ccc(C(F)(F)F)cc2c1-c1ccccc1F`, it took 121 nM to reach half-maximal inhibition in data set [2] (IC50).
With `CNc1nc(=O)n(-c2ccccc2Cl)c2c1CCN(C)C2`, the IC50 in data set [2] is > 10000 nM.
In data set [2], `O=c1nc(NCC(F)F)n2ccc(C(F)(F)F)cc2c1-c1ccccc1F` registered a half-inhibitory concentration (IC50) of 119 nM.
With `CNc1cc(=O)n(-c2ccccc2Cl)c2nc(C(F)(F)F)ccc12`, the half-maximal inhibitory concentration (IC50) in data set [2] was 252 nM.
Turning to `O=c1nc(N2CCCC2)n2ccc(C(F)(F)F)cc2c1-c1ccccc1F`, the IC50 in [2] was 531 nM.
Turning to `O=c1nc(N[C@H]2C[C@H](O)C2)n2ccc(C(F)(F)F)cc2c1-c1ccccc1F`, it took 192 nM to reach half-maximal inhibition in data set [2] (IC50).
The compound `O=c1nc(NC2CC2)n2ccc(C(F)(F)F)cc2c1-c1cccc(O)c1F` displayed a half-maximal inhibitory concentration (IC50) in data set [2] of 31 nM. In data set [5], the concentration peaked (Cmax) at 3960 ng/mL. In data set [8], this compound came in with an exposure AUC(0-t) at 24 h of 8880 ng·h/mL. Moreover, the half-life in data set [16] is 462 min. The Tmax in [20] worked out at 19.8 min.
As to `CNc1nc(=O)c(-c2ccccc2C(C)C)c2cc(C(F)(F)F)ccn12`, the 50% inhibitory concentration (IC50) in [2] came out at 68 nM.

For the origin of these results see ChEMBL document CHEMBL5390303, “Discovery of Potent and Oral Bioavailable MAT2A Inhibitors for the Treatment of MTAP-Deleted Tumors” (ACS Med Chem Lett, 2023).
